The subject of test [1] is methylation level of H3K4. As to the kind of experiment: inhibition of the methylation level of H3K4 (methyltransferase activity). It is filed as biochemical.
For test [2], the system named is MV4-11 human acute mononuclear leukemia cells. Kind of test: anti-proliferative activity against leukemia cells MV4-11. It is filed as cell-based. The settings on record: read-out: GI50 (MV-411). An excerpt: (§1) Some compounds of the present disclosure have also been tested for the antiproliferative activity against leukemia cells.
In test [3] the target is MLL1-WDR5 PPI (Homo sapiens (Human), UniProt P61964). As to the kind of experiment: fluorescent probe assay of MLL1-WDR5 protein-protein interaction inhibition. The following applies: fluorescent probe based on MLL1 peptide, incubation 0.5 hrs, read-out: MLL1-WDR5 PPI inhibiting activity IC50. It is filed as binding. How it is done:
In the present disclosure, a fluorescent molecular probe was constructed based on a MLL1 peptide fragment binding to WDR5, for use as a method for study on an aniline compound interfering with WDR5 protein-protein interaction, to determine an inhibition rate of the aniline compound at various concentrations, and then compute the IC50 value. Specific experimental steps: 20 μL of WDR5 protein, 20 μL of a fluorescent probe, and 20 μL of a compound of different concentration gradients were added to a 384-well plate respectively. After incubation for 0.5 hrs, the fluorescence was read on a multifunctional microplate reader at an excitation wavelength of 485 nm and an emission wavelength of 535 nm, to compute the mP value. The inhibition rate was computed as per the formula below, and then the IC50 value was computed using GraphPad software.

The test system of test [4] is Molm-13 human acute myeloid leukemia cells. Kind of test: anti-proliferative activity against leukemia cells Molm-13. It is filed as cell-based.
Description: as §1

Setting [5] is: Homo sapiens, MV4-11, MV4-11 cells.
The mark [6] stands for this setting: Homo sapiens, MOLM-13, Molm-13 cells.

Like-named read-outs stand apart in the source and are kept apart here.

`CN1CCN(c2ccc(-n3cc(C(=O)N4CCOCC4)nn3)cc2Nc2ncnc(Cl)c2N)CC1` [Example 47, (1-(3-((5-amino-6-chloropyrimidin-4-yl)amino)-4-(4-methylpiperazin-1-yl)phenyl)-1H-1,2,3-triazole-4-yl)(morpholino)methanone]: the “Whether the methylation level of H3K4 was inhibited” value in test [1] is “Yes”. The GI50 in test [2] (setting [5]) is 10.6 µM; in test [4] (setting [6]), 14.7 µM. The IC50 in test [3] stood at 0.24 µM.

`CN1CCN(c2ccc(-c3ccc(N)cc3)cc2Nc2ncnc(Cl)c2N)CC1` [Example 32, N^4-(4′-amino-4-(4-methylpiperazin-1-yl)-[1,1′-biphenyl]-3-yl)-6-chloropyrimidine-e-4,5-diamine]: the “Whether the methylation level of H3K4 was inhibited” value in test [1] is given as “Yes”. Besides, the GI50 came to 40 µM in test [2] (setting [5]) and 27.2 µM in test [4] (setting [6]). Besides, the half-inhibitory concentration (IC50) in test [3] was 0.691 µM.

`CN(C)CCCNC(=O)c1ccc(-c2ccc(N3CCN(C)CC3)c(Nc3ncnc(Cl)c3N)c2)cc1` [Example 28, 3″-((5-amino-6-chloropyrimidin-4-yl)amino)-N-(3-(dimethylamino)propyl)-4″-(4-methylpiperazin-1-yl)-[1,1′-biphenyl]-4-carboxamide]: the “Whether the methylation level of H3K4 was inhibited” value in test [1] is on record as “Yes”. Also, the values for the GI50 in test [2] (setting [5]) and in test [4] (setting [6]) were 29.7 µM and 24.3 µM, respectively. Also, the IC50 in test [3] is 0.27 µM.

For `CN1CCN(c2cc(F)c(-c3ccc(C(=O)NCC4CCOCC4)cc3)cc2Nc2ncnc(Cl)c2N)CC1` [Example 71, 5″-((5-amino-6-chloropyrimidin-4-yl)amino)-2′-fluoro-4″-(4-methylpiperazin-1-yl)-N-((tetrahydro-2H-pyran-4-yl)methyl)-[1,1′-biphenylyl]-4-carboxamide], the “Whether the methylation level of H3K4 was inhibited” value in test [1] is given as “Yes”. Moreover, the GI50 amounted to 15.7 µM in test [2] (setting [5]) and 12.3 µM in test [4] (setting [6]). Moreover, the IC50 in test [3] was 0.036 µM.

For `COC(=O)c1cn(-c2ccc(N3CCN(C)CC3)c(Nc3ncnc(Cl)c3N)c2)nn1` [Example 46, Methyl 1-(3-((5-amino-6-chloropyrimidin-4-yl)amino)-4-(4-methylpiperazin-1-yl)phenyl)-1H-1,2,3-triazole-4-carboxylate], the “Whether the methylation level of H3K4 was inhibited” value in test [1] was “Yes”. The concentration for 50% growth inhibition (GI50) in test [2] (setting [5]) came to 22.4 µM; in test [4] (setting [6]), 11.7 µM. Besides, the IC50 in test [3] was found to be 0.865 µM.

As to `CCCC(=O)Nc1ccc(-c2ccc(N3CCN(C)CC3)c(Nc3ncnc(Cl)c3N)c2)cc1` [Example 36, N-(3″-((5-amino-6-chloropyrimidin-4-yl)amino)-4″-(4-methylpiperazin-1-yl)-[1,1′-biphenyl]-4-yl)butyramide], the “Whether the methylation level of H3K4 was inhibited” value in test [1] is “Yes”. For the same compound, the GI50 in test [2] (setting [5]) was determined as 9.32 µM; in test [4] (setting [6]) it was 12.5 µM. Also, the IC50 in test [3] came out at 0.261 µM.

With `CN1CCN(c2ccc(-c3ccc(NC(=O)CC4CCOCC4)cc3)c(F)c2Nc2ncnc(Cl)c2N)CC1` [Example 61], the “Whether the methylation level of H3K4 was inhibited” value in test [1] is “Yes”. The 50% growth inhibitory concentration (GI50) amounted to 21.1 µM in test [2] (setting [5]) and 20.5 µM in test [4] (setting [6]). Besides, the IC50 in test [3] was 0.085 µM.

For the compound `CN1CCN(c2ccc(-c3ccc(NC(=O)C4CCOCC4)cc3)c(F)c2Nc2ncnc(Cl)c2N)CC1` [Example 59, N-(3″-((5-amino-6-chloropyrimidin-4-yl)amino)-2′-fluoro-4″-(4-methylpiperazin-1-yl)-[1,1′-biphenyl]-4-yl)tetrahydro-2H-pyran-4-carboxamide], in test [1], the “Whether the methylation level of H3K4 was inhibited” value was “Yes”. Also, the figures for the 50% growth inhibitory concentration (GI50) in test [2] (setting [5]) and in test [4] (setting [6]) were 26.4 µM and 31.2 µM, respectively. Moreover, in test [3], the concentration for half-maximal inhibition (IC50) was found to be 0.176 µM.

Regarding `CN1CCC(C(=O)Nc2ccc(-c3ccc(N4CCN(C)CC4)c(Nc4ncnc(Cl)c4N)c3)cc2)CC1` [Example 34, N-(3″-((5-amino-6-chloropyrimidin-4-yl)amino)-4″-(4-methylpiperazin-1-yl)-[1,1′-biphenyl]-4-yl)-1-methylpiperidin-4-carboxamide], the “Whether the methylation level of H3K4 was inhibited” value in test [1] was “Yes”. The GI50 in test [2] (setting [5]) came to 23.2 µM; in test [4] (setting [6]) it was 20.8 µM. The IC50 in test [3] turned out to be 0.287 µM.

Take `CN1CCN(c2ccc(-c3cccc(NC(=O)C4CCOCC4)c3)cc2Nc2ncnc(Cl)c2N)CC1` [Example 40, N-(3″-((5-amino-6-chloropyrimidin-4-yl)amino)-4″-(4-methylpiperazin-1-yl)-[1, 1′-biphenyl]-3-yl)tetrahydro-2H-pyran-4-carboxamide]: the “Whether the methylation level of H3K4 was inhibited” value in test [1] is given as “Yes”. Also, the GI50 was determined as 28.4 µM in test [2] (setting [5]) and 26.2 µM in test [4] (setting [6]). Further, in test [3], the IC50 is 0.328 µM.

As for `CN1CCN(c2ccc(-c3ccc(NC(=O)C4CCCCC4)cc3)cc2Nc2ncnc(Cl)c2N)CC1` [Example 35, N-(3″-((5-amino-6-chloropyrimidin-4-yl)amino)-4″-(4-methylpiperazin-1-yl)-[1,1′-biphenyl]-4-yl)cyclohexanecarboxamide], the “Whether the methylation level of H3K4 was inhibited” value in test [1] is recorded as “Yes”. The results for the concentration for 50% growth inhibition (GI50) in test [2] (setting [5]) and in test [4] (setting [6]) were 2.07 µM and 6.16 µM, respectively. Besides, in test [3], the half-maximal inhibitory concentration (IC50) came to 0.372 µM.

As for `CN1CCN(c2ccc(-n3cc(C(=O)N(C)C)nn3)cc2Nc2ncnc(Cl)c2N)CC1` [Example 51, 1-(3-((5-amino-6-chloropyrimidin-4-yl)amino)-4-(4-methylpiperazin-1-yl)phenyl)-N,N-dimethyl-1H-1,2,3-triazole-4-carboxamide], in test [1], the “Whether the methylation level of H3K4 was inhibited” value is “Yes”. The values for the GI50 in test [2] (MV4-11 cells) and in test [4] (Molm-13 cells) were 38 µM and 39 µM, respectively.

Consider `COC(=O)c1ccc(-c2cc(Nc3ncnc(Cl)c3N)c(N3CCN(C)CC3)cc2F)cc1` [Example 66, Methyl 5′-((5-amino-6-chloropyrimidin-4-yl)amino)-2′-fluoro-4′-(4-methylpiperazin-1-yl)-[1,1′-biphenyl]-4-carboxylate], for which, in test [1], the “Whether the methylation level of H3K4 was inhibited” value is recorded as “Yes”. The GI50 in test [2] (setting [5]) came to 14.4 µM. Moreover, the half-maximal inhibitory concentration (IC50) in test [3] was determined as 0.04 µM.

Turning to `CN1CCN(c2ccc(-n3cc(C(=O)N(C)C)nn3)cc2Nc2ncnc(Cl)c2N)CC1` [Example 50, 1-(3-((5-amino-6-chloropyrimidin-4-yl)amino)-4-(4-methylpiperazin-1-yl)phenyl)-N,N-dimethyl-1H-1,2,3-triazole-4-carboxamide], the “Whether the methylation level of H3K4 was inhibited” value in test [1] was “Yes”. Also, the GI50 turned out to be 29.6 µM in test [2] (setting [5]) and 35.5 µM in test [4] (setting [6]).

As to `Cc1c(F)c(N)cc(C(=O)Nc2cc(-c3ccc(N)cc3)ccc2N2CCN(C)CC2)c1Cl` [DDO-2084, reference compound], the “Whether the methylation level of H3K4 was inhibited” value in test [1] was “Yes”. The GI50 in test [2] (MV4-11 cells) amounted to 17.7 ± 2.3 µM. The 50% inhibitory concentration (IC50) in test [3] came out at 338 µM.

Regarding `CN1CCN(c2ccc(-c3ccncc3)cc2Nc2ncnc(Cl)c2N)CC1` [Example 45, 6-chloro-N^4-(2-(4-methylpiperazin-1-yl)-5-(pyridin-4-yl)phenyl)pyrimidine-4,5-diamine], the 50% growth inhibitory concentration (GI50) in test [2] (setting [5]) was 27.3 µM; in test [4] (setting [6]), 23.2 µM. The IC50 in test [3] was determined as 0.56 µM.

As for `COC(=O)c1ccc(-c2cc(Nc3ncnc(Cl)c3N)c(N3CCN(C)CC3)cc2C)cc1` [Example 73, Methyl 5′-((5-amino-6-chloropyrimidin-4-yl)amino)-2′-methyl-4′-(4-methylpiperazin-1-yl)-[1,1′-biphenyl]-4-carboxylate], in test [1], the “Whether the methylation level of H3K4 was inhibited” value is reported as “Yes”. The concentration for half-maximal inhibition (IC50) in test [3] amounted to 0.316 µM.

In general, GI50 refers to the concentration giving 50% growth inhibition. As a reminder, the IC50 is the concentration needed to halve the response being measured.

These data come from patent publication US12453731B2, “Aniline-based WDR5 protein-protein interaction inhibitor, and preparation method and use thereof” (CHINA PHARMACEUTICAL UNIVERSITY, priority 2019, dated 2025).
